One assay concerns the target T1, h-GABAA α1β3γ2 (Homo sapiens, UniProt P14867+P18507).
T1 construct: expressed in transfected cells; host or cells: HEK293F cells, membranes
Put plainly: Radioligand binding assay, [3H]Flumazenil competition, HEK293F membranes. To be noted: for LogSel / γ2/γ1 Selectivity Ratio: Table 3; for LogSel: Log[Ki α1β3γ2 (nM)/Ki α2β2γ1 (nM)]; for γ2/γ1 Selectivity Ratio: Ki α1β3γ2 (nM)/Ki α2β2γ1 (nM). The procedure:
The affinity of compounds at GABAA γ2 subunit-containing receptors was measured by competition for [^3H]Flumazenil (81.1 Ci/mmol; Roche) binding to HEK293F cells expressing human (transiently transfected) receptors of composition α1β3γ2.
Harvested pellets from HEK293F cells expressing the different GABAA γ2 receptor subtypes were resuspended in Mannitol Buffer pH 7.2-7.4 and processed as described above for the cells expressing the GABAA γ1 subunit-containing receptors.
Assays were incubated to equilibrium for 1 hour at 4° C. and harvested onto GF/C uni-filters (Packard) by filtration using a Packard harvester and washing with ice-cold wash buffer (50 mM Tris; pH 7.5). After drying, filter-retained radioactivity was detected by liquid scintillation counting. Ki values were calculated using Excel-Fit (Microsoft) and are the means of two determinations.

The target of assay [1] is T2, h-GABAA α2β2γ1 (Homo sapiens, UniProt P47869+Q8N1C3).
T2 sequence (P47869 29-451): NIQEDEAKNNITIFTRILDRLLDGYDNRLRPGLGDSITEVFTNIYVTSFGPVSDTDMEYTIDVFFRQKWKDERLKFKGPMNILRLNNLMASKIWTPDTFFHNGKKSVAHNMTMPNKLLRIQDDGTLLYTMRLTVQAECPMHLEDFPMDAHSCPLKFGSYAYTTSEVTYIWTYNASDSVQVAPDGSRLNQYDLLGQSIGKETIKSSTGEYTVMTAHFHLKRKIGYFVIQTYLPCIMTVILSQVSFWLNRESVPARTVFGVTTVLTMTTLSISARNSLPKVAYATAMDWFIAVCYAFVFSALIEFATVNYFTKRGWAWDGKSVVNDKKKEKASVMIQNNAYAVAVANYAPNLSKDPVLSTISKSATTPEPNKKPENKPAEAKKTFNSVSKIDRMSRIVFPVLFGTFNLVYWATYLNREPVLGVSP
T2 sequence (P47870 25-512 partner limits assumed): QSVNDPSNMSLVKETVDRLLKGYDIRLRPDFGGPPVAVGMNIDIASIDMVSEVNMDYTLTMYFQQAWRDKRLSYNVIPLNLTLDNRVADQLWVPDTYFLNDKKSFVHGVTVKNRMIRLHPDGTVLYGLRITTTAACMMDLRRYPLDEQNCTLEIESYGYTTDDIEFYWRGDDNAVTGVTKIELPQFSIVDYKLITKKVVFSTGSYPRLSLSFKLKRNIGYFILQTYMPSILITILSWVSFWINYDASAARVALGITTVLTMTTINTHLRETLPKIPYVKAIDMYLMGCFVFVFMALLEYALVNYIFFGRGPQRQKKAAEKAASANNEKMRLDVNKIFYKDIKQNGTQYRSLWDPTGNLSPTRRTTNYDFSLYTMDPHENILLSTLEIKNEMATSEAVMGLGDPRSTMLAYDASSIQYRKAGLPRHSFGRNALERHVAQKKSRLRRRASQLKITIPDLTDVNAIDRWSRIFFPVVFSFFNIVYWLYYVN
T2 sequence (Q8N1C3 36-465): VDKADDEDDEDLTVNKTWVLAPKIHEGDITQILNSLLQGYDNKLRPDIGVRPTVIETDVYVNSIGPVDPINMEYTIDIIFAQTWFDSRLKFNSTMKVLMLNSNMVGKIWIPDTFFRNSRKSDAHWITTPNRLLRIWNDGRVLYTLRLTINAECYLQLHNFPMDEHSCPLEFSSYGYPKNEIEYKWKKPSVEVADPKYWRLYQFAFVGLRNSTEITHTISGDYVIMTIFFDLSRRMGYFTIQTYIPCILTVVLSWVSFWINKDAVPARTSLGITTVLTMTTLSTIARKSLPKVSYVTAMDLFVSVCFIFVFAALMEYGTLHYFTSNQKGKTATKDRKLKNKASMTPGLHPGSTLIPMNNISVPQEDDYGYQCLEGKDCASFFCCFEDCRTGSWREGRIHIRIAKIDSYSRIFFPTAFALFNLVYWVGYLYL
The assay can be described thus: Radioligand binding assay, [3H]RO7239181 competition, HEK293F membranes. Also on record: signal peptide of human GABAA α5 subunit (Met1 to Ser31), replacing the α2 signal peptide (N); expressed in transfected cells; host or cells: HEK293F cells (ThermoFisher R79007), membranes. The procedure: (§1) The affinity of compounds at GABAA γ1 subunit-containing receptors was measured by competition for [^3H]RO7239181 (67.3 Ci/mmol; Roche) binding to membranes from HEK293F cells (ThermoFisher R79007) expressing human (transiently transfected) receptors of composition […], α2β2γ1, α1β2γ1.
(§2) Harvested pellets from HEK293F cells expressing the different GABAA receptor subtypes were resuspended in Mannitol Buffer pH 7.2-7.4 (Mannitol 0.29M, Triethylamine 10 mM, Acetic acid 10 mM, EDTA 1 mM plus protease inhibitors (20 tablets Complete, Roche Diagnostics Cat. No. 05 056 489 001 per liter)), washed two times and then resuspended at 1:10 to 1:15 dilution in the same buffer. Cell disruption was performed by stirring the suspension in a Parr vessel #4637 at 435 psi for 15 minutes, and then the suspensions were centrifuged at 1000×g for 15 minutes at 4° C. (Beckman Avanti J-HC; rotor JS-4.2). The supernatant (S1) was transferred in a 21 Schott flask and the pellet (P1) was resuspended with Mannitol Buffer up to 175 ml. The resuspended pellet was transferred into a 250 ml Corning centrifugal beaker and centrifuged at 1500×g for 10 minutes at 4° C. (Beckman Avanti J-HC; rotor JS-4.2). The supernatant (S1) was then transferred in the 21 Schott flask and the pellet was discarded. The supernatants (S1) were centrifuged in 500 ml Beckman polypropylene centrifugal beaker at 15′000×g for 30 minutes at 4° C. (Beckman Avanti J-20 XP; rotor JLA-10.500). The pellet (P2) was resuspended with Mannitol Buffer 1:1 and frozen at −80° C. The supernatant (S2) was centrifuged in 100 ml Beckman polypropylene centrifugal tubes at 48000×g for 50 minutes at 4° C. (Beckman Avanti J-20 XP; rotor JA-18). The supernatant (S3) was discarded and the pellet (P3) was resuspended with 1:1 Mannitol Buffer. The P2 and P3 protein concentration was determined with the BIORAD Standard assay method with bovine serum albumin as standard and measured on the NANO-Drop 1000. The membrane suspension was aliquots (500 μl per tube) and stored at −80° C. until required. Membrane homogenates were resuspended and polytronised (Polytron PT1200E Kinematica AG) in Potassium Phosphate 10 mM, KCl 100 mM binding buffer at pH 7.4 to a final assay concentration determined with a previous experiment.
(§3) Assays were incubated to equilibrium for 1 hour at 4° C. and then, membranes were filtered onto unifilter (96-well white microplate with bonded GF/C filters preincubated 20-50 minutes in 0.3% Polyethylenimine) with a Filtermate 196 harvester (Packard BioScience) and washed 4 times with cold Potassium Phosphate 10 mM pH 7.4, KCl 100 mM binding buffer. After drying, filter-retained radioactivity was detected by liquid scintillation counting. Ki values were calculated using Excel-Fit (Microsoft) and are the means of two determinations.

The next assay has as its target T3, h-GABAA α1β2γ1 (Homo sapiens, UniProt P14867+Q8N1C3).
T3 construct: expressed in transfected cells; host or cells: HEK293F cells (ThermoFisher R79007), membranes
T3 sequence (P14867 28-456): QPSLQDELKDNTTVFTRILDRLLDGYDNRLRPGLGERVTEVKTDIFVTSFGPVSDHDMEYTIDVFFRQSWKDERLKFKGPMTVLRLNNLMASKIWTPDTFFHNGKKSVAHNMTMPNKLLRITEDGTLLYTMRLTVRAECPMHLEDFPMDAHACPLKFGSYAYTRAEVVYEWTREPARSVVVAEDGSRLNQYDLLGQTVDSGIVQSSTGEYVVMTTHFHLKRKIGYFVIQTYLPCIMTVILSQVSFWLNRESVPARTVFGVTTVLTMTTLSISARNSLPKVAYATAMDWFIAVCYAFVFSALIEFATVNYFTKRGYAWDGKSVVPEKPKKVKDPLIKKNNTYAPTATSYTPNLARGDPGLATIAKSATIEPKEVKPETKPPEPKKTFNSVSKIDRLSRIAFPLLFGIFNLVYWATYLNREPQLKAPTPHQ
T3 sequence (P47870 25-512 partner limits assumed): T2 sequence (P47870 25-512 partner limits assumed)
T3 sequence (Q8N1C3 36-465): T2 sequence (Q8N1C3 36-465)
The description is as above. The procedure:
as §1, §2, §3

Assay [2] concerns the target T2, h-GABAA α2β2γ1. The assay can be described thus: Two-electrode voltage clamp electrophysiology in Xenopus oocytes, modulation of GABA EC20 current. In kind it is cell-based. Also on record: host or cells: Xenopus laevis oocytes, RNA micro-injection. As to conditions: α2β2γ1 GABAA receptor subtype expressing oocytes; reference PAMs. The procedure: Xenopus laevis oocytes at maturation stages V-VJ were used for the expression of cloned mRNA encoding GABAA receptor subunits. Oocytes ready for RNA micro-injection were bought from Ecocyte, Castrop-Rauxel, Germany and stored in modified Barth's medium (composition in mM: NaCl 88, KCl 1, NaHCO3 2.4, HEPES 10, MgSO4 0.82, CaNO3 0.33, CaCl2 0.33, pH=7.5) at 20° C. until the experiment.
Oocytes were plated in 96-well plates for microinjection using the Roboinject automated instrument (MultiChannelSystems, Reutlingen, Germany). Approximately 50 nL of an aqueous solution containing the RNA transcripts for the subunits of the desired GABAA receptor subtype was injected into each oocyte. […] Oocytes were kept in modified Barth's medium (composition in mM: NaCl 88, KCl 1, NaHCO3 […], HEPES 10, MgSO4 0.82, CaNO3 0.33, CaCl2 0.33, pH=7.5) at 20° C. until the experiment.
Electrophysiological experiments were performed using the Roboocyte instrument (MultiChannelSystems, Reutlingen, Germany) on days 3 to 5 after the micro-injection of mRNA. During the experiment the oocytes were constantly superfused by a solution containing (in mM) NaCl 90, KCl 1, HEPES 5, MgCl2 1, CaCl2 1 (pH 7.4). Oocytes were impaled by two glass microelectrodes (resistance: 0.5-0.8 MΩ) which were filled with a solution containing KCl 1M+K-acetate 1.5 M and voltage-clamped to −80 mV. The recordings were performed at room temperature using the Roboocyte two-electrode voltage clamp system (Multichannelsystem). After an initial equilibration period of 1.5 min GABA was added for 1.5 min at a concentration evoking approximately 20% of a maximal current response (EC20). After another rest interval of 2.5 min GABA was again added evoking a response of similar amplitude and shape. […] Current traces were recorded at a digitization rate of 10 Hz during and shortly before and after the GABA application.
Each compound and concentration was tested on at least 3 oocytes. Different oocytes were used for different compound concentrations.
For the analysis, the digitized current traces of the first and second GABA response were superimposed and, if necessary, rescaled to equal maximal amplitudes. The ratio between the two responses during the time interval of test compound application was calculated point by point. The extremum of the resulting “ratio trace” was taken as the efficacy (“Fold increase”) of the compound expressed as “% modulation of GABA EC20” (100*(Fold increase−1)).

On to `Cc1nnc2n1-c1ccc(Cl)cc1C(c1ccccc1)=NC2` [Alprazolam, reference compound], for which the figures for the Ki on h-GABAA α1β3γ2, on h-GABAA α2β2γ1 [1] and at h-GABAA α1β2γ1 were 19.6 nM, 3940 nM and 5920 nM, respectively. For the same compound, the LogSel on h-GABAA α1β3γ2 is recorded as −2.3.

Consider `Cc1nnc2n1-c1cccc(Cl)c1C(c1c(F)cccc1F)=NC2` [RE-G, 7-chloro-6-(2,6-difluorophenyl)-1-methyl-4H-[1,2,4]triazolo[4,3-a][1,4]benzodiazepine, reference compound], for which, on h-GABAA α1β3γ2, the Ki turned out to be 302 nM, the “γ2/γ1 Selectivity Ratio” value was found to be 9.8 and the LogSel stood at 0.99. This compound also returned a Ki at h-GABAA α2β2γ1 [1] of 30.8 nM.

For `Cc1nnc2n1-c1ccc(Br)cc1C(c1c(F)cccc1F)=NC2` [RE-A, 8-bromo-6-(2,6-difluorophenyl)-1-methyl-4H-[1,2,4]triazolo[4,3-a][1,4]benzodiazepine, reference compound], on h-GABAA α1β3γ2, the Ki was 5.6 nM, the “γ2/γ1 Selectivity Ratio” value is 0.18 and the LogSel is −0.74. In addition, at h-GABAA α2β2γ1 [1], the Ki was determined as 32.1 nM.

With `Cc1nnc2n1-c1ccccc1C(c1c(F)cccc1F)=NC2` [RE-C, 6-(2,6-difluorophenyl)-1-methyl-4H-[1,2,4]triazolo[4,3-a][1,4]benzodiazepine, reference compound], at h-GABAA α1β3γ2, the Ki was 5.8 nM, the “γ2/γ1 Selectivity Ratio” value was found to be 0.0092 and the LogSel is on record as −2.0. This compound also registered a Ki at h-GABAA α2β2γ1 [1] of 627 nM.

At h-GABAA α1β3γ2, `Clc1ccc2c(c1)C(c1ccccc1)=NCc1nncn1-2` [Estazolam, reference compound] registered a Ki of 28.4 nM and a LogSel of −2.0. Also, the Ki at h-GABAA α2β2γ1 [1] is 3180 nM.

On h-GABAA α1β3γ2, `Cc1nnc2n1-c1ccc(Cl)cc1C(c1ccccc1Cl)=NC2` [Triazolam, reference compound] came in with a LogSel of −1.5. Besides, at h-GABAA α2β2γ1 [2], the “potentiation of the GABA-induced current” value is roughly 60%.

As to `Cc1nnc2n1-c1ccc(C(F)(F)F)cc1C(c1c(F)cccc1F)=NC2` [RE-B, 6-(2,6-difluorophenyl)-1-methyl-8-(trifluoromethyl)-4H-[1,2,4]triazolo[4,3-a][1,4]benzodiazepine, reference compound], on h-GABAA α1β3γ2, the Ki worked out at 15.6 nM, the “γ2/γ1 Selectivity Ratio” value is on record as 0.23 and the LogSel is recorded as −0.64. Further, the Ki on h-GABAA α2β2γ1 [1] was found to be 68.4 nM.

For the origin of these results see patent publication US20230141603A1, “BENZODIAZEPINE DERIVATIVES AS GABA A GAMMA1 PAM” (Hoffmann-La Roche Inc., priority 2021, published 2023).
